Measurements: patent US20240018501A1, “HIGHER PERFORMANCE PROTEASES FOR SCARLESS PEPTIDE TAG REMOVAL” (priority 2017, published 2024)
Ends that are not written are not given here. * marks the point of attachment. Butanoyl(2-oxo) = CCC(=O)C(=O)*; Pyruvoyl = CC(=O)C(=O)*

B1: CylA: class II LanP subtilisin-like serine protease of enterococcal cytolysin biosynthesis, SEQ ID NO: 9 (protein)
chain: MKKRGLTYILISYIFLILGTTGYASDLSNNISFFIDNSQTTAIEEIESELSSEKVDYIQEIGLVSFKNLDDSDRKFIGKYFNVSEGKKLPDFKPEEVNSSILNINILNKDFKSFNWPYKKILSHIDPVKEQLGKDITIALIDSGIDRLHPNLQDNNLRLKNYVNDIELDEYGHGTQVAGVIDTIAPRVNLNSYKVMDGTDGNSINMLKAIVDATNDQVDIINVSLGSYKNMEIDDERFTVEAFRKVVNYARKNNILIVASAGNESRDISTGNEKHIPGGLESVITVGATKKSGDIADYSNYGSNVSIYGPAGGYGDNYKITGQIDAREMMMTYYPTSLVSPLGKAADFPDGYTLSFGTSLATPEVSAALAAIMSKNVDNSKDSNEVLNTLFENADSFIDKNSMLKYKEVRIK
modifications: … PEPTIDE SEQUENCE FOR FULL LENGTH CylA
B2: CylA-96-412 (protein)
chain: EVNSSILNINILNKDFKSFNWPYKKILSHIDPVKEQLGKDITIALIDSGIDRLHPNLQDNNLRLKNYVNDIELDEYGHGTQVAGVIDTIAPRVNLNSYKVMDGTDGNSINMLKAIVDATNDQVDIINVSLGSYKNMEIDDERFTVEAFRKVVNYARKNNILIVASAGNESRDISTGNEKHIPGGLESVITVGATKKSGDIADYSNYGSNVSIYGPAGGYGDNYKITGQIDAREMMMTYYPTSLVSPLGKAADFPDGYTLSFGTSLATPEVSAALAAIMSKNVDNSKDSNEVLNTLFENADSFIDKNSMLKYKEVRIK

Columns and labels:
His6-ElxO = His6-ElxO activity assay (NADPH absorbance at 340 nm, LC-MS); assay type: biochemical, Staphylococcus epidermidis 15X154; details: LC-MS analysis
Description: Wild type or mutant His6-ElxO (2 or 10 μM) and purified peptide (0.1 to 5 mM) were incubated with NADPH (2.5 mM) in assay buffer (100 mM HEPES, 500 mM NaCl, pH 7.5) at 25° C. Reaction progress was monitored by UV spectrophotometry to measure initial rates, measuring the disappearance of NADPH absorbance at 340 nm. […] The mobile phase was 0.1% (v/v) formic acid in water (A) and methanol (B). A gradient of 0-70% (v/v) B in A over 30 minutes and a flow rate of 0.5 mL min^−1 were used.
Synthetic lactocin S (50 μM), obtained from Prof. J. Vederas (University of Alberta), was incubated with His6-ElxO (50 μM) and NADPH (10 mM) in assay buffer (100 mM HEPES, 500 mM NaCl, pH 7.5) at room temperature for 12 h. […] A gradient of 3-97% (v/v) B (0.10% (v/v) formic acid in methanol) in A (0.1% (v/v) formic acid in water) over 12 min was used.

[1] = tested on: Pediococcus acidilactici Pac1.0; experiment: Agar diffusion bioactivity assay; assay type: cell-based; details: for activity against P. acidilactici Pac1.0: agar diffusion
Description: (§1) Agar diffusion bioactivity assays were performed using de Man-Rogosa-Sharpe (MRS) agar media. For each assay, aliquots of agar medium inoculated with overnight cultures of indicator strain (1/100 dilution) were poured into sterile plates. Aliquots of 20 μL of sample were placed into wells made on the solidified agar and the plates were incubated at 37° C. overnight. For determination of critical concentration, the diameter of the inhibition zones were determined and fitted to the equation D=a+b×(C), where D is the diameter of the inhibition zone, C is the concentration of bacteriocin, and a and b are constant parameters. For MIC determinations, serial dilutions of peptides were prepared in MRS broth and aliquots of 50 μL were dissolved in 150 μL of a 1 to 50 dilution of an overnight culture of indicator strain in fresh MRS broth on 96-well plates. The cultures were incubated at 37° C. overnight and the wells with no bacterial growth (OD600<0.3) were determined.

L. sake L45 = experiment: Agar diffusion bioactivity assay, lactocin S producer strain; assay type: cell-based, Lactobacillus sake
Description: as §1

modified CylLS [2] = experiment: Kinetic analysis of full length CylA and CylA-96-412 against modified CylLS (LC/MS); assay type: biochemical, Enterococcus faecalis
Description: Targeted peptides were dissolved in H2O to a final concentration of 3 mg/mL. To a 85 μL solution of peptides, 10 μL of 500 mM HEPES buffer (pH 7.5) was added followed by 5 μL of 0.5 mg/mL AspN protease (for modified CylLL and CylLS peptides), 0.1 mg/mL CylA protease (for modified and unmodified CylLL, CylLS peptides, and modified HalA2-GDVQAE peptide) or 0.1 mg/mL LicP protease (for LicA2). For cleavage tests of the engineered GDVQAE peptides, CylA was added to a final concentration of 0.01 mg/mL, whereas the peptide was added to a concentration of 0.3 mg/mL with 50 mM HEPES buffer (pH 7.5). The protease cleavage reaction mixtures were kept at 25° C. for 1 to 48 h. Osmotic pressure was adjusted with NaCl solution with a final concentration of 150 mM. The digested peptide mixture was directly used for antimicrobial and hemolytic assay. For the kinetic analysis of CylA and its mutant proteins, His6-CylA-27-412 and His6-CylA-27-412-E95A proteins were added to a final concentration of 500 ng/mL and 2.5 μg/mL (22 nM and 110 nM), respectively, with modified CylLS supplied at a concentration of 0.3 mg/mL (36 μM). The reactions were allowed to proceed at room temperature and were stopped by 1% TFA at different time points for LC/MS analysis. Halα and Halβ were obtained by factor Xa cleavage of modified HalA1Xa and HalA2 Xa peptides using the procedure of Y. Shi, et al. J. Am. Chem. Soc. 2011, 133, 2338. CylLL″ and CylLS″ were prepared in the same way using modified CylLL-E-1K and CylLS-E-1K peptides as described in W. Tang and W. A. van der Donk, Nat. Chem. Biol. 2013, 9, 157.
As full length CylA is not available due to its self-cleavage, His6-CylA-27-412-E95A was chosen to serve as a substituent of full length CylA as the self-cleavage was abolished whereas the conserved catalytic C-terminal region of CylA remained unchanged. To obtain the mature protease CylA-96-412, His6-CylA-27-412 was aged at 4° C. for 12 hours to allow the self-cleavage to proceed until CylA-96-412 was the dominant peak monitored by MALDI-TOF MS. The aged protein mixture was directly used as a substituent of CylA-96-412. To test the proteases' activities, CylA-96-412 and His6-CylA-27-412-E95A were supplied with a final concentration of 22 nM and 110 nM, respectively, with modified CylLS served at a concentration of 36 μM. The reactions were stopped at 3 minute, 6 minute, 12 minute and 24 minute by 1% TFA and the formation of mature CylLS″ was monitored by liquid chromatography MS (LC/MS). […] The production of core peptide was analyzed by extracted ion chromatography monitoring the desired product mass 1017 (M+2H^+).

[3] = Storage and freeze-thaw stability of the proteases; assay type: physicochemical
modified CylLS [4] = molecular target: modified CylLS
[5] = serial dilution agar diffusion, versus control samples containing native lactocin S

| Molecule | reduction by His6-ElxO in the presence of NADPH (His6-ElxO) | further results |
| --- | --- | --- |
| Glx-AAIVK | no significant formation of the reduced peptide | – |
| OBu-AAAVK ({Butanoyl(2-oxo)}-AAAVK) | substrates for the enzyme | – |
| OBu-AAIAK | substrates for the enzyme | – |
| OBu-AGPAIR ({Butanoyl(2-oxo)}-AGPAIR) [resembles the N-terminus of Pep5] | reduced | – |
| Obu-AAIVK | accepted as substrates | – |
| Obu-RAIVK | accepted as substrates | – |
| Pyr-AAI (Pyruvoyl-Ala-Ala-Ile) | reduced | – |
| Pyr-AAIV (Pyruvoyl-AAIV) | reduced | – |
| Pyr-AAVLK | reduced | – |
| Pyr-APVLA (Pyruvoyl-APVLA) [resembles the N-terminus of lactocin S] | reduced | – |
| Pyr-BPVLAAVAVAKKK | reduced | – |
| Pyr-LGPAIK (Pyruvoyl-LGPAIK) [mimics the N-terminal portion of dehydroepicidin 280] | reduced | – |
| dihydrolactocin S | – | activity against P. acidilactici Pac1.0 [1]: active; critical concentrations (no inhibition zone) [1, 5]: smaller; inhibition zones [1, 5]: slightly larger; activity against L. sake L45 (L. sake L45): not against L. sake L45 |
| lactocin S [reference compound] | confirming the formation of dihydrolactocin S | activity against P. acidilactici Pac1.0 [1]: active; activity against L. sake L45 (L. sake L45): not against L. sake L45 |
| B1 | – | turnover rate (modified CylLS [2]): 20 min⁻¹; activity after multiple rounds of freeze-thaw [3]: no obvious decrease of activity; stability on storage ([3]; −20° C): stable |
| B2 | – | rate of proteolysis of modified CylLS (modified CylLS [2]; enzyme 22 nM, modified CylLS 36 μM, room temperature, LC/MS): 20 substrate peptides per minute; rate of proteolysis, formation of CylLS″ by LC/MS (22 nM enzyme, 36 µM substrate) (modified CylLS [4]): CylA-96-412 catalyzed the proteolysis of 20 substrate peptides per minute |
